SMILES strings stand for the structures.

T1 sequence (P34972 whole entry): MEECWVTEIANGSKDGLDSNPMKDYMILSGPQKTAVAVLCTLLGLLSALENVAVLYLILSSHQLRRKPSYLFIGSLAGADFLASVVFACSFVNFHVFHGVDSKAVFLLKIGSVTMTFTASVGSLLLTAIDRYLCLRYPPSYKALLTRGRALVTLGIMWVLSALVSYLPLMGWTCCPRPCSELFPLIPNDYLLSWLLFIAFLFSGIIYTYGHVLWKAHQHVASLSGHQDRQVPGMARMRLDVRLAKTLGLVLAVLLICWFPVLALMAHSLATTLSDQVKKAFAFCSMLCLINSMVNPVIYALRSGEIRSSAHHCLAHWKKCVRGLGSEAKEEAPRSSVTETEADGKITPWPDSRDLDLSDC

One assay concerns the target T1, recombinant human cannabinoid CB2 receptor (Homo sapiens, UniProt P34972).
T1 construct: purchased Receptor Biology RB-HCB2
The assay is described as follows: competition with [3H] CP-55,940 for binding to recombinant cannabinoid receptor membranes (CB2).
Settings: not given
As for the experimental part: Potential cannabinoid receptor ligands were screened for the ability to compete with [^3H] CP-55,940 for binding to recombinant cannabinoid receptors. Test compounds were serially diluted in Diluent Buffer (50 mM Tris pH 7.1, 1 mM EDTA, 3 mM MgCl2, 0.1% BSA, 10% DMSO, 0.36% methyl cellulose (Sigma M-6385)) from stocks prepared in 100% DMSO. Aliquots (10 μL) were transferred into 96-well microtiter plates. Membrane preparations of recombinant human cannabinoid CB2 receptor (Receptor Biology #RB-HCB2) or recombinant human cannabinoid CB1 receptor (Receptor Biology #RB-HCB1) were diluted to 0.3 mg/mL in Binding Buffer (50 mM Tris pH 7.2, 1 mM EDTA, 3 mM MgCl2, 0.1% BSA). Aliquots (50 μL) were added to each well of the microtiter plate. The binding reactions were initiated by addition of [^3H] CP-55,940 (New England Nuclear # NET 1051; specific activity=180 Ci/mmol) to each well of the microtiter plate. Each 100 μl reaction mixture contained 0.48 nM [^3H] CP-55,940, 15 μg membrane protein in binding buffer containing 1% DMSO and 0.036% methyl cellulose. Following incubation for 2 hours at room temperature, the reactions were filtered through 0.5% polyethylenimine-coated GF/C filter plates (UniFilter-96, Packard) with a TomTec Mark 3U Harvester (Hamden, CT). The filter plate was washed 5 times with binding buffer, rotated 180°, then re-washed 5 times with binding buffer. Bound radioactivity was quantitated following addition of 30 μl of Packard Microscint 20 scintillant in a Packard TopCount NXT microplate scintillation counter. Non-linear regression analysis of the resulting data was performed using Prism 2.0b (GraphPad, San Diego, Calif.).
The activities (potencies) for the compounds of the invention are determined by measuring their Ki values.
As for `COc1ccc(S(=O)(=O)c2ccc(C(C)C)cc2)c(S(=O)(=O)c2ccccn2)c1` [AG], the Ki was less than 20 nM.

For `CC(C)c1ccc(S(=O)(=O)c2c(S(=O)(=O)c3ccccc3F)c3ccccc3n2C)cc1` [AO], the Ki is less than 20 nM.

Take `CC(C)c1ccc(Cc2ccc(OC(F)(F)F)cc2S(=O)(=O)c2ccccc2F)cc1` [C]: the Ki is less than 20 nM.

Regarding `CC(C)c1ccc(S(=O)(=O)c2ccc(OC(F)(F)F)cc2S(=O)(=O)c2ccccc2F)cc1` [F], the Ki was less than 20 nM.

Staying with this assay, now noted: 0.48 nM [3H] CP-55,940, 15 μg membrane protein, 2 hours at room temperature; read-out: CB2 Ki.
Turning to `COc1ccc(S(=O)(=O)c2ccc(C3CC3)cc2)c(S(=O)(=O)c2ccccc2F)c1` [AH], the Ki was less than 20 nM.

Regarding `CC(C)c1ccc(S(=O)(=O)c2ccc(C(C)C)cc2S(=O)(=O)c2ccccn2)cc1` [AJ], the Ki is less than 20 nM.

`CC(C)Oc1ccc(S(=O)(=O)c2ccc(C(C)C)cc2)c(S(=O)(=O)c2ccccc2F)c1` [AK]: the inhibition constant (Ki) was less than 20 nM.

With `CC(C)c1ccc(S(=O)(=O)c2c(S(=O)(=O)c3ccccn3)c3ccccc3n2C)cc1` [AQ], the Ki is less than 20 nM.

In the case of `CC(C)c1ccc(S(=O)(=O)c2ccc(OC(F)(F)F)cc2S(=O)(=O)c2ccccn2)cc1` [G], the Ki was less than 20 nM.

Take `O=S(=O)(c1ccc(C2CC2)cc1)c1ccc(Cl)cc1S(=O)(=O)c1ccccc1F` [K]: the Ki was less than 20 nM.

With `COCCOc1ccc(S(=O)(=O)c2ccc(C(C)C)cc2)c(S(=O)(=O)c2ccccc2F)c1` [S], the Ki was less than 20 nM.

Source of the values: patent publication US7642272B2, “Cannabinoid receptor ligands” (Schering Corporation, priority 2003, dated 2010).
